molecular target: T1, human recombinant Yes [a.a. 2–543 (end)] (Homo sapiens, UniProt P07947); experiment: ADP-Glo kinase assay, inhibition rates of Yes phosphorylation activity (first and second screening); type: biochemical; conditions: first screening; mean of n = 4 wells; 10 μmol L−1 compound
T1 construct: human recombinant Yes [a.a; 2–543 (end)]; purchased BPS Bioscience 40488
In short: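 ADP-Glo luminescence measured inhibition of human recombinant Yes (a.a. 2–543) phosphorylation activity. In the first screen, each compound ran in 4 wells and inhibition rates were averaged. The second screen retested hits as compounds dissolved from fresh powder.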

T1 sequence (P07947 2-543): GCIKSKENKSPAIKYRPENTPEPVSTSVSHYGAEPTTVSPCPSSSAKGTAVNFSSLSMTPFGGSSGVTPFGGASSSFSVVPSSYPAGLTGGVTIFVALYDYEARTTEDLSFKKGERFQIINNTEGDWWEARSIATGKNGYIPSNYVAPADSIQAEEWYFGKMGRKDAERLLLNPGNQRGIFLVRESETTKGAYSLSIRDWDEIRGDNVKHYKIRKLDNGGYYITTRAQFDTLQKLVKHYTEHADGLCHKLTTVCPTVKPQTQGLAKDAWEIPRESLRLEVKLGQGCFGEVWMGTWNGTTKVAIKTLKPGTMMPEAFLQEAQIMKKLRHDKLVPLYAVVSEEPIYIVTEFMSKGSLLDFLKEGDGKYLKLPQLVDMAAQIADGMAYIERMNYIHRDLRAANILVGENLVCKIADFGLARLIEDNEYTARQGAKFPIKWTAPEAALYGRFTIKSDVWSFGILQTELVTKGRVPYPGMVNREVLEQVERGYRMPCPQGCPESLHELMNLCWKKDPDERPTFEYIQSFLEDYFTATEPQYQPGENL

Q: Which “First screening IR (inhibition rate)” value does the source give for CC1=CC(=C(C#N)c2nc3ccccc3s2)C=C(C)N1c1ccc2c(c1)OCCO2 [Compound Z223450274] here?
A: -6%

Q: How did the “First screening IR (inhibition rate)” value turn out when Cn1ncc2c(N3CCNCC3)ncnc21 [Compound Z223639244] was run?
A: -11%

Q: How did the “First screening IR (inhibition rate)” value turn out when CCOc1ccc(N2C(C)=CC(=C(C#N)c3nc4ccccc4s3)C=C2C)cc1 [Compound Z223690154] was run?
A: 20%

Q: For Cn1c(=O)n(CCN2CCOCC2)c(=O)c2c1nc1n2CCN1c1ccc(Oc2ccccc2)cc1 [Compound Z223838602], which “First screening IR (inhibition rate)” value is on record?
A: 49%

Q: O=C(O)c1cc(-c2ccccc2)nc2c1cnn2Cc1ccccc1Cl [Compound Z223844412] was tested. Which “First screening IR (inhibition rate)” value did it give?
A: 7%

Q: For CCn1ncc2c(C(=O)NC(C)C)cc(-c3ccccc3)nc21 [Compound Z223848612], which “First screening IR (inhibition rate)” value is on record?
A: 6%

Q: With CCn1ncc2c(C(=O)N(C)Cc3ccccc3)cc(-c3ccccc3)nc21 [Compound Z223859126] as the compound, how does the “First screening IR (inhibition rate)” value read?
A: -16%

Q: For CCN(CC)C(=O)c1cc(-c2cc(C)oc2C)nc2c1cnn2C(C)C [Compound Z223881508], which “First screening IR (inhibition rate)” value is on record?
A: -12%

Q: For COC(=O)c1cc(NC(=O)C2=C(Cl)CCCC2)cc(C(=O)OC)c1 [Compound Z223943920], which “First screening IR (inhibition rate)” value is on record?
A: -1%

Q: With O=C(O)/C=C/c1ccc(NC(=O)CSC(c2ccccc2)c2ccccc2)cc1 [Compound Z224289160] as the compound, how does the “First screening IR (inhibition rate)” value read?
A: -8%

Q: With CCn1ncc2c(C(=O)Nc3ncc(C)s3)cc(-c3ccccc3)nc21 [Compound Z224316064] as the compound, how does the “First screening IR (inhibition rate)” value read?
A: 10%

Q: CCn1ncc2c(C(=O)NCc3cccc(OC)c3)cc(-c3ccccc3)nc21 [Compound Z224328394] was tested. Which “First screening IR (inhibition rate)” value did it give?
A: 6%

Q: With O=S(=O)(c1ccccc1Cl)N1CCN(Cc2nc(-c3cccc(C(F)(F)F)c3)no2)CC1 [Compound Z224344580] as the compound, how does the “First screening IR (inhibition rate)” value read?
A: -5%

Q: With CCn1ncc2c(C(=O)N(C)Cc3ccc(SC)cc3)cc(-c3ccccc3)nc21 [Compound Z224588706] as the compound, how does the “First screening IR (inhibition rate)” value read?
A: -5%

Q: With CCn1ncc2c(C(=O)N3CCN(CC(=O)Nc4cccc(C)c4C)CC3)cc(-c3ccccc3)nc21 [Compound Z224933090] as the compound, how does the “First screening IR (inhibition rate)” value read?
A: -4%

Q: With CCn1ncc2c(C(=O)NCc3cc(OC)c(OC)cc3OC)cc(-c3ccccc3)nc21 [Compound Z224953910] as the compound, how does the “First screening IR (inhibition rate)” value read?
A: 2%

Q: Which “First screening IR (inhibition rate)” value does the source give for Cc1ccc(-c2cc(C(=O)NC(C)c3ccccn3)c3cnn(C(C)C)c3n2)cc1 (centres unmarked) [Compound Z225035912] here?
A: 16%

Q: With CCn1ncc2c(C(=O)Nc3ccc(F)c([N+](=O)[O-])c3)cc(-c3cccs3)nc21 [Compound Z225316878] as the compound, how does the “First screening IR (inhibition rate)” value read?
A: 31%

Q: Cc1cccn2c(NC(=O)c3cccc(S(=O)(=O)NC(C)C)c3)c(-c3ccccc3)nc12 [Compound Z225376048] was tested. Which “First screening IR (inhibition rate)” value did it give?
A: 0%

Q: For CCOC(=O)c1[nH]c(C)c(C(=O)CSc2n[nH]c(-c3ccccc3)n2)c1C [Compound Z225443610], which “First screening IR (inhibition rate)” value is on record?
A: -8%

Q: Which “First screening IR (inhibition rate)” value does the source give for Cc1csc(CNC(=O)c2cc(-c3ccccc3)nc3c2cnn3C(C)C)n1 [Compound Z225893888] here?
A: 1%

Q: Which “First screening IR (inhibition rate)” value does the source give for CCN(CC)S(=O)(=O)c1c[nH]c(C(=O)NCc2nc(C)cs2)c1 [Compound Z225896678] here?
A: 9%

Q: Cc1ccc(-c2cc(C(=O)NC(c3ccccc3F)c3nccn3C)c3cnn(C(C)C)c3n2)s1 (centres unmarked) [Compound Z225919834] was tested. Which “First screening IR (inhibition rate)” value did it give?
A: -2%

Q: For COc1ccc(/C=C/c2noc(C)c2NC(=O)c2cccs2)cc1 [Compound Z226257158], which “First screening IR (inhibition rate)” value is on record?
A: 4%

Q: Which “First screening IR (inhibition rate)” value does the source give for O=C(NCc1ccc(COCC(F)(F)F)cc1)c1ccc2nc[nH]c2c1 [Compound Z226277016] here?
A: 13%

Q: How did the “First screening IR (inhibition rate)” value turn out when CC1CN(C(C)(C)CNC(=O)c2ccc(NS(=O)(=O)c3ccccc3)cc2)CC(C)O1 (centres unmarked) [Compound Z226329302] was run?
A: 6%

Q: With O=C(CCNC(=O)c1ccco1)Nc1ccc2nc(N3CCCC3)sc2c1 [Compound Z226430254] as the compound, how does the “First screening IR (inhibition rate)” value read?
A: 3%

Q: Which “First screening IR (inhibition rate)” value does the source give for Nc1nc(CSc2ncc(-c3ccc(F)cc3)o2)nc2ccccc12 [Compound Z226851604] here?
A: -34%

Q: How did the “First screening IR (inhibition rate)” value turn out when COCCOC(=O)c1cc(-c2ccc(C)cc2)nc2c1cnn2C(C)C [Compound Z226924464] was run?
A: 6%

Q: Which “First screening IR (inhibition rate)” value does the source give for CCn1ncc2c(C(=O)OCC#N)cc(-c3cccs3)nc21 [Compound Z227189870] here?
A: 2%

Q: Cc1cc(COC(=O)c2cc(-c3ccc4c(c3)OCCO4)nc3c2cnn3C(C)C)on1 [Compound Z227321660] was tested. Which “First screening IR (inhibition rate)” value did it give?
A: 48%

Q: CCCn1c(CSc2ncn(-c3ccccc3)n2)nc2cc(S(=O)(=O)N(C)C)ccc21 [Compound Z227429876] was tested. Which “First screening IR (inhibition rate)” value did it give?
A: -10%

Q: With CCNC(=O)c1cc(-c2ccccc2)nc2c1cnn2Cc1ccccc1 [Compound Z227991512] as the compound, how does the “First screening IR (inhibition rate)” value read?
A: 6%

Q: How did the “First screening IR (inhibition rate)” value turn out when CCN(CC)CCn1c(NC(=O)c2ccc(OCC(F)(F)F)nc2)nc2ccccc21 [Compound Z228032620] was run?
A: 14%

Q: For CC(=O)NCCNC(=O)c1cc(-c2ccccc2)nc2c1cnn2Cc1ccccc1Cl [Compound Z228081748], which “First screening IR (inhibition rate)” value is on record?
A: 50%

Q: Which “First screening IR (inhibition rate)” value does the source give for O=C(NCCc1nc2ccccc2[nH]1)c1cc(-c2ccccc2)nc2c1cnn2Cc1ccco1 [Compound Z228153102] here?
A: 7%

Q: How did the “First screening IR (inhibition rate)” value turn out when Cc1cc(-c2cc(C(=O)Nc3ccc(N4CCN(C)CC4)nc3)c3cnn(C(C)C)c3n2)c(C)o1 [Compound Z228220646] was run?
A: 15%

Q: Which “First screening IR (inhibition rate)” value does the source give for O=c1[nH]c(SCc2coc(-c3ccccc3)n2)nc2sccc12 [Compound Z228473210] here?
A: -4%

Q: NC(=O)COC(=O)c1cc(-c2ccccc2)nc2c1cnn2Cc1ccccc1 [Compound Z228517946] was tested. Which “First screening IR (inhibition rate)” value did it give?
A: 4%

Q: For CNC(=O)NC(=O)COC(=O)c1cc(-c2ccccc2)nc2c1cnn2Cc1ccccc1 [Compound Z228518838], which “First screening IR (inhibition rate)” value is on record?
A: -8%

Q: Cc1cc(COC(=O)c2cc(-c3ccccc3)nc3c2cnn3Cc2ccccc2)no1 [Compound Z228519880] was tested. Which “First screening IR (inhibition rate)” value did it give?
A: -10%

Q: For N#Cc1cccc(/C=C2/C(=O)Nc3ccccc32)c1 [Compound Z228595564], which “First screening IR (inhibition rate)” value is on record?
A: 8%

Q: How did the “First screening IR (inhibition rate)” value turn out when Cc1nn(C)c2nc(-c3ccccc3)cc(C(=O)Nc3ccc4[nH]c(=O)[nH]c4c3)c12 [Compound Z228695802] was run?
A: -6%

Q: For O=C(Nc1cccnc1)C1CCN(C(=O)c2ccc(C(F)(F)F)cc2)CC1 [Compound Z228734424], which “First screening IR (inhibition rate)” value is on record?
A: -1%

Q: Which “First screening IR (inhibition rate)” value does the source give for Cn1ncc2c(NCC3(c4ccccc4)CC3)ncnc21 [Compound Z229243940] here?
A: -5%

Q: With CC(NC(=O)C(C)N1CCCN(Cc2ccc(C#N)cc2)CC1)c1ccccc1 (centres unmarked) [Compound Z229381330] as the compound, how does the “First screening IR (inhibition rate)” value read?
A: -12%

Q: How did the “First screening IR (inhibition rate)” value turn out when Cc1ccccc1-c1cc(C(N)=O)c2cnn(C(C)C)c2n1 [Compound Z229615400] was run?
A: 14%

Q: Which “First screening IR (inhibition rate)” value does the source give for O=C(Nc1ccc(N2CCOCC2)nc1)c1cc(-c2ccc(Cl)cc2)n[nH]1 [Compound Z229828974] here?
A: 8%

Q: Which “First screening IR (inhibition rate)” value does the source give for Cc1ccc(CSCC(=O)NC(Cc2ncc[nH]2)c2ccccc2)cc1 (centres unmarked) [Compound Z230096354] here?
A: 28%

Q: O=C(CN1C(=O)c2ccccc2C1=O)NCc1cn(Cc2ccccc2)nc1-c1ccccc1 [Compound Z230132198] was tested. Which “First screening IR (inhibition rate)” value did it give?
A: 24%

Q: CCn1c(C)cc(C(=O)N2CCc3[nH]c4ccccc4c3C2)c1C [Compound Z231937310] was tested. Which “First screening IR (inhibition rate)” value did it give?
A: 6%

Q: Cc1cccc(N=C2NN=C(c3ccc(CCNS(C)(=O)=O)s3)CS2)c1C [Compound Z232307154] was tested. Which “First screening IR (inhibition rate)” value did it give?
A: 37%

Q: For CN(C)c1nc(N)nc(CSCc2nc3ccccc3s2)n1 [Compound Z232651876], which “First screening IR (inhibition rate)” value is on record?
A: -13%

Q: For CC(SCc1nc(N)nc(N(C)C)n1)C(=O)Nc1ccc(F)cc1 (centres unmarked) [Compound Z232651902], which “First screening IR (inhibition rate)” value is on record?
A: -3%

Q: For O=C(NCCc1cnn(-c2ccccc2)c1)c1cnn(-c2ccccc2)c1 [Compound Z234515634], which “First screening IR (inhibition rate)” value is on record?
A: -7%

Q: O=C(NCc1ccco1)c1cc(-c2cccnc2)nc2c1cnn2Cc1ccccc1Cl [Compound Z234860216] was tested. Which “First screening IR (inhibition rate)” value did it give?
A: 19%

Q: How did the “First screening IR (inhibition rate)” value turn out when Cc1c(C#N)c(NC(=O)CN2CCN(c3ncnc4c3cnn4C)CC2)n(Cc2ccccc2)c1C [Compound Z234865770] was run?
A: 13%

Q: Cc1nn(C)c2nc(C3CC3)cc(C(=O)Nc3ccccc3O)c12 [Compound Z235446856] was tested. Which “First screening IR (inhibition rate)” value did it give?
A: 27%

Q: With NC(=S)c1cc(C(=O)c2ccccc2O)cn2c1nc1ccccc12 [Compound Z235467022] as the compound, how does the “First screening IR (inhibition rate)” value read?
A: 5%

Q: For Cc1ccc(-c2noc(CN3CCN(Cc4nc5ccccc5c(=O)n4Cc4ccco4)CC3)n2)cc1 [Compound Z235827834], which “First screening IR (inhibition rate)” value is on record?
A: 3%

Q: How did the “First screening IR (inhibition rate)” value turn out when CC(=O)c1c[nH]c(C(=O)NCc2csc(-c3ccccc3)n2)c1 [Compound Z236994250] was run?
A: 4%

Q: With CCc1ccc(-n2c(-c3ccccc3)cn3c4c(=O)n(CCN5CCOCC5)c(=O)n(C)c4nc23)cc1 [Compound Z237376112] as the compound, how does the “First screening IR (inhibition rate)” value read?
A: 39%

Q: How did the “First screening IR (inhibition rate)” value turn out when Cc1cc(Cl)cc(Br)c1OCCNCCN(C)C.Cl [Compound Z237479802] was run?
A: 9%

Q: With NS(=O)(=O)c1cccc(S(=O)(=O)Cl)c1 [Compound Z237480338] as the compound, how does the “First screening IR (inhibition rate)” value read?
A: 3%

Q: For CCCCN(C1CCS(=O)(=O)C1)S(C)(=O)=O (centres unmarked) [Compound Z237523250], which “First screening IR (inhibition rate)” value is on record?
A: -21%

Q: Which “First screening IR (inhibition rate)” value does the source give for Cc1ccc(-n2c(-c3ccccc3)cn3c4c(=O)n(CCN5CCOCC5)c(=O)n(C)c4nc23)cc1 [Compound Z237731508] here?
A: 14%

Q: Cc1ccc(C)c(CN2CCN(c3nc4c(c(=O)[nH]c(=O)n4C)n3C/C=C/c3ccccc3)CC2)c1 [Compound Z237731644] was tested. Which “First screening IR (inhibition rate)” value did it give?
A: 5%

Q: With Cc1ccc(C)c(CN2CCN(c3nc4c(c(=O)[nH]c(=O)n4C)n3Cc3ccc(Cl)cc3)CC2)c1 [Compound Z237733696] as the compound, how does the “First screening IR (inhibition rate)” value read?
A: 8%

same assay, conditions: second screening, dissolved from fresh powder; n = 4; 10 μmol L−1 compound

Q: Cn1c(=O)n(CCN2CCOCC2)c(=O)c2c1nc1n2CCN1c1ccc(Oc2ccccc2)cc1 [Compound Z223838602] was tested. Which “Second screening IR (inhibition rate)” value did it give?
A: -4%

Q: With Cc1cccc(N=C2NN=C(c3ccc(CCNS(C)(=O)=O)s3)CS2)c1C [Compound Z232307154] as the compound, how does the “Second screening IR (inhibition rate)” value read?
A: -3%

Q: For CCc1ccc(-n2c(-c3ccccc3)cn3c4c(=O)n(CCN5CCOCC5)c(=O)n(C)c4nc23)cc1 [Compound Z237376112], which “Second screening IR (inhibition rate)” value is on record?
A: 20%
